Tests used:
[1] = system: Escherichia coli; experiment: Antimicrobial activity against Escherichia coli 25922 assessed as absence bacterial growth measured after 18 to 24 hrs incubation by NCCLS method; assay type: functional; settings: time 18-24 hrs
[2] = system: Escherichia coli; experiment: Antimicrobial activity against Escherichia coli K88 assessed as absence bacterial growth measured after 18 to 24 hrs incubation by NCCLS method; assay type: functional; settings: time 18-24 hrs
[3] = system: Salmonella typhimurium; experiment: Antimicrobial activity against Salmonella typhimurium 14028 assessed as absence bacterial growth measured after 18 to 24 hrs incubation by NCCLS method; assay type: functional, Salmonella enterica subsp. enterica serovar Typhimurium; settings: Salmonella enterica, time 18-24 hrs
[4] = Antimicrobial activity against Salmonella pullorum C7913 assessed as absence bacterial growth measured after 18 to 24 hrs incubation by NCCLS method; assay type: functional, Salmonella enterica subsp. enterica serovar Pullorum; settings: Salmonella enterica, time 18-24 hrs
[5] = system: Pseudomonas aeruginosa; experiment: Antimicrobial activity against Pseudomonas aeruginosa 27853 assessed as absence bacterial growth measured after 18 to 24 hrs incubation by NCCLS method; assay type: functional; settings: time 18-24 hrs
[6] = system: Acinetobacter baumannii; experiment: Antimicrobial activity against Acinetobacter baumannii 1.6769 assessed as absence bacterial growth measured after 18 to 24 hrs incubation by NCCLS method; assay type: functional; settings: time 18-24 hrs
[7] = system: Enterococcus faecalis; experiment: Antimicrobial activity against Enterococcus faecalis 29212 assessed as absence bacterial growth measured after 18 to 24 hrs incubation by NCCLS method; assay type: functional; settings: time 18-24 hrs
[8] = system: Listeria monocytogenes; experiment: Antimicrobial activity against Listeria monocytogenes 1.10753 assessed as absence bacterial growth measured after 18 to 24 hrs incubation by NCCLS method; assay type: functional; settings: time 18-24 hrs
[9] = system: Bacillus cereus; experiment: Antimicrobial activity against Bacillus cereus 1.932 assessed as absence bacterial growth measured after 18 to 24 hrs incubation by NCCLS method; assay type: functional; settings: time 18-24 hrs
[10] = system: Staphylococcus aureus; experiment: Antimicrobial activity against Staphylococcus aureus 29213 assessed as absence bacterial growth measured after 18 to 24 hrs incubation by NCCLS method; assay type: functional; settings: time 18-24 hrs
[11] = system: Staphylococcus aureus; experiment: Antimicrobial activity against Methicillin-resistant Staphylococcus aureus 43300 assessed as absence bacterial growth measured after 18 to 24 hrs incubation by NCCLS method; assay type: functional; settings: time 18-24 hrs
[12] = system: Staphylococcus epidermidis; experiment: Antimicrobial activity against Staphylococcus epidermidis 12228 assessed as absence bacterial growth measured after 18 to 24 hrs incubation by NCCLS method; assay type: functional; settings: time 18-24 hrs
[13] = system: Staphylococcus aureus; experiment: Antimicrobial activity against Staphylococcus aureus 29213 assessed as absence bacterial growth measured after 18 to 24 hrs incubation by NCCLS m; assay type: functional; settings: time 18-24 hrs
[14] = system: Escherichia coli; experiment: Antimicrobial activity against Escherichia coli 25922 assessed as bacterial killing measured after 16 hrs incubation; assay type: functional
[15] = system: Escherichia coli; experiment: Antimicrobial activity against Escherichia coli K88 assessed as bacterial killing measured after 16 hrs incubation; assay type: functional
[16] = system: Salmonella typhimurium; experiment: Antimicrobial activity against Salmonella typhimurium 14028 assessed as bacterial killing measured after 16 hrs incubation; assay type: functional, Salmonella enterica subsp. enterica serovar Typhimurium; settings: Salmonella enterica
[17] = system: Salmonella typhimurium; experiment: Antimicrobial activity against Salmonella typhimurium C7731 assessed as bacterial killing measured after 16 hrs incubation; assay type: functional, Salmonella enterica subsp. enterica serovar Typhimurium; settings: Salmonella enterica
[18] = Antimicrobial activity against Salmonella pullorum C7913 assessed as bacterial killing measured after 16 hrs incubation; assay type: functional, Salmonella enterica subsp. enterica serovar Pullorum; settings: Salmonella enterica
[19] = system: Pseudomonas aeruginosa; experiment: Antimicrobial activity against Pseudomonas aeruginosa 27853 assessed as bacterial killing measured after 16 hrs incubation; assay type: functional
[20] = system: Acinetobacter baumannii; experiment: Antimicrobial activity against Acinetobacter baumannii 1.6769 assessed as bacterial killing measured after 16 hrs incubation; assay type: functional
[21] = system: Enterococcus faecalis; experiment: Antimicrobial activity against Enterococcus faecalis 29212 assessed as bacterial killing measured after 16 hrs incubation; assay type: functional
[22] = system: Listeria monocytogenes; experiment: Antimicrobial activity against Listeria monocytogenes 1.10753 assessed as bacterial killing measured after 16 hrs incubation; assay type: functional
[23] = system: Bacillus cereus; experiment: Antimicrobial activity against Bacillus cereus 1.932 assessed as bacterial killing measured after 16 hrs incubation; assay type: functional
[24] = system: Staphylococcus aureus; experiment: Antimicrobial activity against Staphylococcus aureus 29213 assessed as bacterial killing measured after 16 hrs incubation; assay type: functional
[25] = system: Staphylococcus aureus; experiment: Antimicrobial activity against Methicillin-resistant Staphylococcus aureus 43300 assessed as bacterial killing measured after 16 hrs incubation; assay type: functional
[26] = system: Staphylococcus epidermidis; experiment: Antimicrobial activity against Staphylococcus epidermidis 12228 assessed as bacterial killing measured after 16 hrs incubation; assay type: functional
[27] = system: Staphylococcus aureus; experiment: Antimicrobial activity against Staphylococcus aureus 25923 assessed as bacterial killing measured after 16 hrs incubation; assay type: functional
[28] = system: Salmonella typhimurium; experiment: Antimicrobial activity against Salmonella typhimurium C7731 assessed as absence bacterial growth measured after 18 to 24 hrs incubation by NCCLS method; assay type: functional, Salmonella enterica subsp. enterica serovar Typhimurium; settings: Salmonella enterica, time 18-24 hrs
[29] = system: Escherichia coli; experiment: Antimicrobial activity against Escherichia coli 25922 assessed as absence bacterial growth measured after 18 to 24 hrs incubation in presence of 50% serum by NCCLS method; assay type: functional; settings: time 18-24 hrs
[30] = system: Escherichia coli; experiment: Antimicrobial activity against Escherichia coli 25922 assessed as absence bacterial growth measured after 18 to 24 hrs incubation in presence of 25% serum by NCCLS method; assay type: functional; settings: time 18-24 hrs
[31] = system: Escherichia coli; experiment: Antimicrobial activity against Escherichia coli 25922 assessed as absence bacterial growth measured after 18 to 24 hrs incubation in presence of 12.5% serum by NCCLS method; assay type: functional; settings: time 18-24 hrs
[32] = Hemolytic activity in human RBC at effective concentration at 128 uM measured after 1 hr by microplate reader relative to control; assay type: toxicity, cell-based, Erythrocyte; settings: human red blood cells (erythrocytes), read-out: Activity
[33] = system: Escherichia coli; experiment: Antimicrobial activity against Escherichia coli 25922 assessed as absence bacterial growth measured after 18 to 24 hrs incubation in presence of NaCl by NCCLS method; assay type: functional; settings: time 18-24 hrs
[34] = system: Escherichia coli; experiment: Antimicrobial activity against Escherichia coli 25922 assessed as absence bacterial growth measured after 18 to 24 hrs incubation in presence of KCl by NCCLS method; assay type: functional; settings: time 18-24 hrs
[35] = system: Escherichia coli; experiment: Antimicrobial activity against Escherichia coli 25922 assessed as absence bacterial growth measured after 18 to 24 hrs incubation in presence of NH4Cl by NCCLS method; assay type: functional; settings: time 18-24 hrs
[36] = system: Escherichia coli; experiment: Antimicrobial activity against Escherichia coli 25922 assessed as absence bacterial growth measured after 18 to 24 hrs incubation in presence of MgCl2 by NCCLS method; assay type: functional; settings: time 18-24 hrs
[37] = system: Escherichia coli; experiment: Antimicrobial activity against Escherichia coli 25922 assessed as absence bacterial growth measured after 18 to 24 hrs incubation in presence of ZnCl2 by NCCLS method; assay type: functional; settings: time 18-24 hrs
[38] = system: Escherichia coli; experiment: Antimicrobial activity against Escherichia coli 25922 assessed as absence bacterial growth measured after 18 to 24 hrs incubation in presence of FeCl3 by NCCLS method; assay type: functional; settings: time 18-24 hrs
[39] = Cytotoxicity against human HEK-293T cells assessed as cell survival rate at 64 uM measured after 8 hrs by MTT assay relative to control; assay type: toxicity, cell-based; settings: read-out: Activity
[40] = Cytotoxicity against porcine IPEC-J2 cells assessed as cell survival rate at 64 uM measured after 8 hrs by MTT assay relative to control; assay type: toxicity, cell-based, Sus scrofa; settings: pig, read-out: Activity
[41] = system: Erythrocyte; experiment: Hemolytic activity in human RBC at effective concentration measured after 1 hr by microplate reader analysis; assay type: toxicity, cell-based
[42] = Cytotoxicity against mouse RAW264.7 cells assessed as cell survival rate measured after 8 hrs by MTT assay; assay type: toxicity, cell-based
[43] = Cytotoxicity against human HEK-293T cells assessed as cell survival rate measured after 8 hrs by MTT assay; assay type: toxicity, cell-based
[44] = Cytotoxicity against porcine IPEC-J2 cells assessed as cell survival rate measured after 8 hrs by MTT assay; assay type: toxicity, cell-based, Sus scrofa; settings: pig

H-GKLWLKGGKLWLKGGKLWLKG-NH2
MIC [1]: 4 µM
MIC [2]: 1 µM
MIC [3]: 2 µM
MIC [4]: 1 µM
MIC [5]: 8 µM
MIC [6]: 8 µM
MIC [7]: > 32 µM
MIC [8]: > 32 µM
MIC [9]: > 32 µM
MIC [10]: > 32 µM
MIC [11]: > 32 µM
MIC [12]: > 32 µM
MIC [13]: > 32 µM
MBC [14]: 8 µM
MBC [15]: 2 µM
MBC [16]: 4 µM
MBC [17]: 8 µM
MBC [18]: 2 µM
MBC [19]: 16 µM
MBC [20]: 8 µM
MBC [21]: > 32 µM
MBC [22]: > 32 µM
MBC [23]: > 32 µM
MBC [24]: > 32 µM
MBC [25]: > 32 µM
MBC [26]: > 32 µM
MBC [27]: > 32 µM
MIC [28]: 4 µM
MIC [29]: > 32 µM
MIC [30]: > 32 µM
MIC [31]: > 32 µM
hemolysis at 1 h, 128 µM [32]: < 10%
MIC [33]: > 32 µM
MIC [34]: 4 µM
MIC [35]: 4 µM
MIC [36]: 16 µM
MIC [37]: 4 µM
MIC [38]: 4 µM
viability at 8 h, 64 µM [39]: > 80%
viability at 8 h, 64 µM [40]: > 80%
HC10 [41]: > 128 µM
IC50 at 8 h [42]: > 64 µM
IC50 at 8 h [43]: > 64 µM
IC50 at 8 h [44]: > 64 µM

Reference: ChEMBL document CHEMBL5518215, “Unlocking Antibacterial Potential: Key-Site-Based Regulation of Antibacterial Spectrum of Peptides” (J Med Chem, 2024)
